For orientation: IC50 means the concentration that inhibits the measured activity by half.

IC50 data for 41 compounds are collected here from ChEMBL document CHEMBL2203060, “Design, synthesis and biological evaluation of N-arylphenyl-2,2-dichloroacetamide analogues as anti-cancer agents” (Bioorg Med Chem Lett, 2012).

Common to all, as to type: functional, cell-based
Experiment [1] can be described thus: Cytotoxicity against human KB-3-1 cells after 68 hrs by MTT assay. To be noted: KB 3-1, 68 h. For orientation: Tetrazolium assays rely on reduction of a dye to a coloured formazan, in cell work by metabolically active cells.
The subject of another experiment is A549. Nature of the experiment: Cytotoxicity against human A549 cells after 68 hrs by MTT assay. The note with it: A549, 68 h.
In the next experiment the test system is NCI-H460. Nature of the experiment: Cytotoxicity against human H460 cells after 68 hrs by MTT assay. To be noted: NCI-H460, 68 h.

As for `O=C(Nc1cccc(-c2nccs2)c1)C(Cl)Cl`, the IC50 (in experiment [1]; with A549; in the experiment with NCI-H460) was above 50 µM each time.
`O=C(Nc1cc(-c2ccc3c(c2)OCO3)cc(-c2ccc3c(c2)OCO3)c1)C(Cl)Cl`: the IC50 in experiment [1] worked out at 2.4 µM; in the experiment with A549, 1.73 µM; in the experiment on NCI-H460, 1.04 µM.
In the same order, the values of `O=C(Nc1cc(-c2ccc(OC3CCCCO3)cc2)cc(-c2ccc(OC3CCCCO3)cc2)c1)C(Cl)Cl` (stereo not drawn) are 7.22 µM, 2.75 µM and 2.42 µM.
The corresponding values for `CC(C)c1ccc(-c2cc(NC(=O)C(Cl)Cl)cc(-c3ccc(C(C)C)cc3)c2)cc1` are above 30 µM, 17.4 µM and 24.8 µM.
As for `COc1ccc(-c2cc(NC(=O)C(Cl)Cl)cc(-c3ccc(OC)c(F)c3)c2)cc1F`, the IC50 in experiment [1] amounted to 2.94 µM; with A549, 1.95 µM; with NCI-H460, 1.76 µM.
In the case of `COc1cc(F)cc(-c2cc(NC(=O)C(Cl)Cl)cc(-c3cc(F)cc(OC)c3)c2)c1`, the IC50 in experiment [1] came to 5.99 µM; in the experiment with A549 it was 8.99 µM; in the experiment with NCI-H460, 2.9 µM.
`O=C(Nc1cccc(-c2cccc(NC(=O)C(Cl)Cl)c2)c1)C(Cl)Cl`: the 50% inhibitory concentration (IC50) is above 50 µM in experiment [1], 47.9 µM in the experiment with A549 and above 50 µM in the experiment with NCI-H460.
For the compound `Cc1ccc(-c2cccc(NC(=O)C(Cl)Cl)c2)cc1`, the half-inhibitory concentration (IC50) in experiment [1] was above 50 µM; with A549 it was 8.3 µM; in the experiment with NCI-H460 it was 8 µM.
The corresponding values for `O=C(Nc1cccc(-c2ccc(F)cc2)c1)C(Cl)Cl` are 26.2 µM, 7.84 µM and above 50 µM.
In the same order, the values of `O=C(Nc1cccc(-c2ccc(Cl)cc2)c1)C(Cl)Cl` are 38.2 µM, 36.2 µM and above 50 µM.
In the same order, the values of `COc1ccc(-c2cccc(NC(=O)C(Cl)Cl)c2)cc1` are above 50 µM, 8.53 µM and 43.3 µM.
Consider `O=C(Nc1cccc(-c2ccc(C(F)(F)F)cc2)c1)C(Cl)Cl`, for which the IC50 in experiment [1] is above 50 µM; with A549 it was 23.5 µM; in the experiment with NCI-H460, 33.5 µM.
The corresponding values for `O=C(Nc1cccc(-c2ccc(-c3ccccc3)cc2)c1)C(Cl)Cl` are above 50 µM, above 50 µM and 10.9 µM.
The corresponding values for `COC(=O)c1ccc(-c2cccc(NC(=O)C(Cl)Cl)c2)cc1` are above 50 µM, above 50 µM and above 50 µM.
Regarding `COc1ccccc1-c1cc(NC(=O)C(Cl)Cl)cc(-c2ccccc2OC)c1`, the 50% inhibitory concentration (IC50) in experiment [1] is above 30 µM; in the experiment on A549, 25.5 µM; in the experiment on NCI-H460, above 30 µM.
On to `COc1cccc(-c2cc(NC(=O)C(Cl)Cl)cc(-c3cccc(OC)c3)c2)c1`, for which the IC50 is above 30 µM in experiment [1], 9.4 µM in the experiment with A549 and above 30 µM in the experiment with NCI-H460.
On to `COc1ccc(-c2cc(NC(=O)C(Cl)Cl)cc(-c3ccc(OC)cc3)c2)cc1`, for which the IC50 is above 30 µM in experiment [1], 20.8 µM in the experiment with A549 and above 30 µM in the experiment with NCI-H460.
As to `CCOc1ccccc1-c1cc(NC(=O)C(Cl)Cl)cc(-c2ccccc2OCC)c1`, the IC50 in experiment [1] was determined as 8.73 µM; in the experiment on A549, 7.28 µM; in the experiment on NCI-H460, 5.09 µM.
In the same order, the values of `CCOc1cccc(-c2cc(NC(=O)C(Cl)Cl)cc(-c3cccc(OCC)c3)c2)c1` are 14.8 µM, 8.83 µM and 4.95 µM.
In the same order, the values of `CCOc1ccc(-c2cc(NC(=O)C(Cl)Cl)cc(-c3ccc(OCC)cc3)c2)cc1` are 23.9 µM, 8.05 µM and 6.08 µM.
On to `CSc1ccccc1-c1cc(NC(=O)C(Cl)Cl)cc(-c2ccccc2SC)c1`, for which the IC50 in experiment [1] was above 30 µM; in the experiment with A549 it was 6.51 µM; with NCI-H460, above 30 µM.
For `CSc1cccc(-c2cc(NC(=O)C(Cl)Cl)cc(-c3cccc(SC)c3)c2)c1`, the IC50 in experiment [1] is above 30 µM; with A549 it was 15.9 µM; with NCI-H460, above 30 µM.
Turning to `CSc1ccc(-c2cc(NC(=O)C(Cl)Cl)cc(-c3ccc(SC)cc3)c2)cc1`, the IC50 in experiment [1] was above 30 µM; in the experiment on A549 it was 22.3 µM; in the experiment with NCI-H460 it was above 30 µM.
Turning to `CC(C)Oc1ccc(-c2cc(NC(=O)C(Cl)Cl)cc(-c3ccc(OC(C)C)cc3)c2)cc1`, the concentration for half-maximal inhibition (IC50) in experiment [1] came out at 8.85 µM; with A549, 3.82 µM; in the experiment on NCI-H460, 2.86 µM.
In the same order, the values of `O=C(Nc1cccc(-c2ccccc2)c1)C(Cl)Cl` are 46.8 µM, 8.9 µM and 20.2 µM.
In the same order, the values of `O=C(Nc1cccc(-c2ccoc2)c1)C(Cl)Cl` are above 50 µM, 8.48 µM and 37.6 µM.
In the same order, the values of `O=C(Nc1cccc(-c2cccs2)c1)C(Cl)Cl` are above 50 µM, 47.6 µM and above 50 µM.
For the compound `O=C(Nc1cccc(-c2ccsc2)c1)C(Cl)Cl`, the half-inhibitory concentration (IC50) (in experiment [1]; in the experiment with A549; in the experiment with NCI-H460) was above 50 µM each time.
With `O=C(Nc1cccc(-c2ccccn2)c1)C(Cl)Cl`, the concentration for half-maximal inhibition (IC50) (in experiment [1]; with A549; with NCI-H460) was above 50 µM in each case.
On to `Cc1ccccc1-c1cccc(NC(=O)C(Cl)Cl)c1`, for which the values for the IC50 (in experiment [1]; in the experiment with A549; in the experiment with NCI-H460) were 42 µM, 9.86 µM and 31.6 µM, respectively.
The corresponding values for `O=C(Nc1cccc(-c2ccccc2F)c1)C(Cl)Cl` are 48.3 µM, 13.2 µM and 26.8 µM.
The corresponding values for `O=C(Nc1cccc(-c2ccccc2Cl)c1)C(Cl)Cl` are above 50 µM, 22.6 µM and above 50 µM.
In the same order, the values of `COc1ccccc1-c1cccc(NC(=O)C(Cl)Cl)c1` are 13.1 µM, 13.1 µM and 40.4 µM.
For the compound `O=C(Nc1cccc(-c2ccccc2C(F)(F)F)c1)C(Cl)Cl`, the concentration for half-maximal inhibition (IC50) came to 35.9 µM in experiment [1], 7.5 µM in the experiment with A549 and 7.55 µM in the experiment on NCI-H460.
In the same order, the values of `Cc1cccc(-c2cccc(NC(=O)C(Cl)Cl)c2)c1` are above 50 µM, 8.7 µM and 24.2 µM.
The corresponding values for `O=C(Nc1cccc(-c2cccc(F)c2)c1)C(Cl)Cl` are above 50 µM, 9.53 µM and above 50 µM.
The corresponding values for `O=C(Nc1cccc(-c2cccc(Cl)c2)c1)C(Cl)Cl` are above 50 µM, 21.4 µM and above 50 µM.
On to `COc1cccc(-c2cccc(NC(=O)C(Cl)Cl)c2)c1`, for which the IC50 in experiment [1] stood at 43.3 µM; with A549 it was 4.31 µM; with NCI-H460, 33.8 µM.
`O=C(Nc1cccc(-c2cccc(C(F)(F)F)c2)c1)C(Cl)Cl`: the IC50 in experiment [1] is above 50 µM; in the experiment with A549, 18.5 µM; in the experiment on NCI-H460, 30.2 µM.
As to `Nc1cccc(-c2cccc(NC(=O)C(Cl)Cl)c2)c1`, the values for the IC50 (in experiment [1]; in the experiment on A549; with NCI-H460) were 26.1 µM, above 50 µM and above 50 µM, respectively.
As for `O=C([O-])C(Cl)Cl.[Na+]` [SODIUM DICHLOROACETATE], the figures for the half-inhibitory concentration (IC50) (in experiment [1]; in the experiment with A549; with NCI-H460) were 5880 µM, 4290 µM and 3890 µM, respectively.
